Read-outs that look alike come from different tables or passages of the source.
Columns and labels:
Rhinovirus Type 2 = assay: Rhinovirus yield reduction assay; details: for ED50 (virus yield): second experiment
[1] = test system: Rhinovirus (RV) type 2, strain GPH; assay: Cytopathogenic effect (CPE) inhibition assay; details: for EC50: A549 cells
[2] = test system: A-549 (human lung carcinoma) cells; assay: Cytotoxicity by microscopic morphological changes in uninfected toxicity control wells
[3] = drug present without medium change

EC50 ([1]; Enterovirus, A549, 72 h, read-out: ED50, Expt. 2, 3 days' incubation at 37° C., drug present without medium change)	EC50 ([1]; Enterovirus, A549, 120 h, read-out: ED50, Expt. 1, 5 days' incubation at 37° C., drug present without medium change)	EC50 ([1]; Enterovirus, A549, read-out: ED50, Expt. 1, 5 days' incubation at 37° C., drug changed every 24 hours)	EC50 ([1]; Enterovirus, A549, read-out: ED50, Expt. 2, 3 days' incubation at 37° C., drug changed every 24 hours)	Compound	conclusion on inhibition of type 2 rhinovirus (Rhinovirus Type 2; overall conclusion from CPE and virus yield results)	ED90 concentration (virus yield) (Rhinovirus Type 2; same whether compound left on the cells or freshly added daily)	ED50 (virus yield) (Rhinovirus Type 2; drug changed every 24 hours)	ED50 (virus yield) (Rhinovirus Type 2; [3])	inhibition of viral CPE ([1]; both methods, both experiments, compared with ribavirin)	EC50 ([1]; read-out: ED50, Expt. 1, 5 days' incubation at 37° C., drug changed every 24 hours)	EC50 ([1]; read-out: ED50, Expt. 1, 5 days' incubation at 37° C., drug present without medium change)	EC50 ([1]; read-out: ED50, Expt. 2, 3 days' incubation at 37° C., drug changed every 24 hours)	EC50 ([1]; read-out: ED50, Expt. 2, 3 days' incubation at 37° C., drug present without medium change)	cytotoxicity observed ([2]; both experiments, A549 cells)	CD50 ([2]; Expt. 1, 5 days' incubation at 37° C., drug changed every 24 hours, A549 cells)	CD50 ([2]; Expt. 1, 5 days' incubation at 37° C., drug present without medium change, A549 cells)	CD50 ([2]; Expt. 2, 3 days' incubation at 37° C., drug changed every 24 hours, A549 cells)	CD50 ([2]; Expt. 2, 3 days' incubation at 37° C., drug present without medium change, A549 cells)	CD50 ([2]; Table 2, second experiment, drug changed every 24 hours)	CD50 ([2]; Table 2, second experiment, drug present without medium change)
				2′,3′-cyclophosphateadenylyl(2′,5′)adenylyl-(2′,5′)adenosine [Papirine AIII]	significant inhibitor of type 2 rhinovirus	8 µM	8 µM	8 µM	significant inhibition of viral CPE was seen that exceeded the activity of the known positive inhibitor, ribavirin	24 µM	25 µM	63 µM	63 µM	no cytotoxicity was observed						
410 µM	610 µM	1190 µM	186 µM	NC(=O)c1ncn([C@@H]2O[C@H](CO)[C@@H](O)[C@H]2O)n1 [Ribavirin]			102 µM	53 µM							2290 µM	2290 µM	740 µM	740 µM	740 µM	740 µM
